Assay [1] relates to microglia isolated from adult mouse brain. Kind of assay: inflammatory gene expression in microglia isolated from adult brain of LPS-treated mice. The assay is classed as in vivo. As to conditions: 2-3 mo C57B6 male mice, LPS 5 mg/kg i.p., AE1-329 0.3 mg/kg subcutaneously, microglia harvested at 6 hours. How it is done: qPCR was carried out as previously described (Liang et al., 2008). Briefly, total RNA was isolated using Trizol reagent (Invitrogen, Carlsbad, Calif.), treated with DNAse (Invitrogen), and the reaction was terminated by heating at 65° C. for 10 minutes. First strand cDNA synthesis was performed with 1.5 μg of total RNA, 4 units of Omniscript enzyme (Qiagen, Valencia, Calif.) and 0.25 μg of random primer in a reaction volume of 20 μl at 37° C. for 1 hour. Reverse transcribed cDNA was diluted 1:20 in RNAse free ddH2O for subsequent RT-PCR. The mRNA level for each target gene was quantified by SYBR Green-based qPCR using the QuantiTect SYBR Green PCR kit (Qiagen). Melting curve analysis confirmed the specificity of each reaction. […] Quantification was performed using the standard curve method. […]
Adult microglial cell isolation was carried according to the methods of Cardona et al., 2006, and cells were processed for RNA isolation or flow cytometry. […] Purity of the microglial preparation was determined in separate experiments by labeling ˜10^5 cells/ml with phycoerythrin (PE)-conjugated hamster anti-mouse CD11b or IgG isotype control (1:100; eBioscience, San Diego, Calif.) for 30 minutes on ice. […] Flow cytometry was performed on a LSR II (BD Biosciences), and data analyzed with FlowJo 7.2.2 software. […]

A further assay concerns primary microglia. Kind of assay: qPCR of inflammatory gene expression in LPS-stimulated primary microglia. The assay is classed as cell-based, rat. The note with it: LPS treated primary microglia, AE1-329 100 nM, 3 h. How it is done:
Murine microglial-like BV-2 cells were grown in DMEM medium supplemented with 10% heat-inactivated fetal bovine serum (HyClone, Logan, Utah) and 100 units/ml each of penicillin and streptomycin and were maintained at 37° C. in a humidified atmosphere containing 5% CO2. For primary microglial cultures, cerebral cortices were isolated from postnatal day 2 Sprague-Dawley rat pups obtained from Charles River Laboratories International, Inc. (Davis, Calif.). Tissues were minced and incubated in 0.25% trypsin-EDTA, mechanically triturated in DMEM/F-12 with 10% FBS, and plated on poly-L-lysine-coated […]. Cultures were maintained for 14 days with media changes every 4 days. […]
qPCR was carried out as previously described (Liang et al., 2008). […] The mRNA level for each target gene was quantified by SYBR Green-based qPCR using the QuantiTect SYBR Green PCR kit (Qiagen). […] Quantification was performed using the standard curve method. […]
Inflammatory stimuli such as LPS can activate microglia through the CD14/TLR4 receptor complex and induce the expression of pro-inflammatory enzymes and cytokines (Fassbender et al., 2004; Walter et al., 2007). […] BV-2 cells were treated with LPS (10 ng/ml) in the presence or absence of the selective EP4 agonist AE1-329 (1 μM) for 6 h, and pro-inflammatory gene expression was measured using qPCR (see FIG. 2). […]
(In general: Real-time PCR tracks product formation cycle by cycle.)

From patent publication US20120283293A1, “Methods of neuroprotection involving Prostaglandin E2 EP4 (PGE2 EP4) receptor activation” (The Board of Trustees of the Leland Stanford Junior …, priority 2011, published 2012) come the findings set out here.

The structures appear in SMILES notation.

As to `COCc1ccccc1CC[C@H](O)/C=C/[C@H]1[C@H](O)CC(=O)[C@@H]1SCCCSCC(=O)O` [AE1-329], the “LPS-induced microglial COX-2, iNOS, IL-6, TNF-α and gp91phox expression” value in assay [1] was “significantly reduced”. For the same compound, in the assay on primary microglia, the IL-10 expression entry is given as “upregulation of the anti-inflammatory IL-10” and the “pro-inflammatory gene expression (iNOS, COX-2, TNF-α, gp91phox)” value is reported as “downregulation of pro-inflammatory gene expression”.
